experiment: acid dissociation constant (pKa) of the conjugate acid of the base component; conditions: water
Source text: The pKa of the conjugate acid of the base is the pKa of the cation of the base.

Compound	pKa
CCCCN1CCOCC1 [N-butylmorpholine]	7.5
CCCCNCCCC [dibutylamine]	11.3
CC(C)CN(CC(C)C)CC(C)C [triisobutylamine]	9.5

Source: patent US12469647B2, “Electrolytic capacitor” (Panasonic Intellectual Property Management Co., Ltd., priority 2020, dated 2025)
